From patent publication US7384911B2, “Peptides having antimicrobial properties and compositions containing them, notably for the preservation of foodstuffs” (priority 2002, dated 2008) come the findings set out here.

SMILES strings stand for the structures. Where two headings read alike, the source gives them in different places. Residues, ends and D or L forms follow the SMILES beside them. Where only a bound is given, the exact number is not on record here.

One assay concerns E. coli 1106. The assay can be described thus: Bactericidal or bacteriostatic effect, spreading on Petri dishes and counting colonies. Format: cell-based, Escherichia coli. Particulars: colonies counted after 24 h of incubation, Yes/No. As for the experimental part: (§1) The bactericidal or bacteriostatic effect of the peptide was determined by spreading on Petri dishes and counting the colonies present after 24 h of incubation.

Another assay concerns Bacillus subtilis. Format: cell-based. Particulars: interval [a]-[b], tested spheniscin-2 0.2-100 μM, MSI-94 0.2-10 μM. As for the experimental part: (§2) The bacteria to be tested were suspended in a suitable nutritive medium of the “poor broth” type corresponding to a solution of bactotryptone at 10 g/l with the addition of NaCl 5 g/l in ultrapure water.
(§3) Antimicrobial activities were detected by a growth inhibition test in microtitration plates (Hétru and Bulet, 1997). One deposited […] of each fraction collected in mictrotitration plates in the presence of 90 μl of culture medium containing the microorganisms (at a final concentration equivalent to 1 mDO at 600 nm).
(§4) For the bacteria and the yeast, incubation was performed at 30° C. for 12-24 h under agitation. The growth of the microorganisms was measured by monitoring the absorbance at 600 nm by means of a spectrophotometer reader of microtitration plates.
(§5) The antimicrobial activities expressed in minimal inhibitory concentration (MIC) of spheniscin 2 (concentrations comprised between 0.2 μM and 100 μM) were determined against bacteria, yeasts and fungi using a growth inhibition test in liquid medium in microtitration plates (for the detailed protocol see example 2.4 as well as Hétru and Bulet, 1997).
(§6) The minimal growth inhibitory concentration (MIC) corresponds to the interval [a]-[b] in which [a] is the strongest concentration tested for which the microorganism grows and [b] is the weakest concentration tested starting at which there is 100% inhibition of growth of the microorganism (Casteels and Tempst, 1994). The control peptides were MSI-94 (a peptide of the mangainin family stemming from the skin of the batrachian Xenopus laevis and presenting a broad spectrum of antimicrobial activity; Maloy and Kari, 1995) for testing against the bacteria and yeasts; and thanatin (an antifungal peptide stemming from the insect Podisus maculiventris; Fehlbaum et al., 1996) for testing against the filamentous fungi.

The test system of a further assay is Escherichia coli SBS 363. It counts as cell-based. Particulars: interval [a]-[b], tested spheniscin-2 0.2-100 μM, MSI-94 0.2-10 μM. As to the method: as §2, §3, §4, §5, §6
For another assay, the system named is Klebsiella pneumoniae. It counts as cell-based. The conditions noted are these: interval [a]-[b], tested spheniscin-2 0.2-100 μM, MSI-94 0.2-10 μM. As for the experimental part:
as §2, §3, §4, §5, §6

A further assay has as its system B. megaterium. Format: cell-based. The conditions noted are these: interval [a]-[b], tested spheniscin-2 0.2-100 μM, MSI-94 0.2-10 μM. As to the method:
as §2, §3, §4, §5, §6

For another assay, the system named is Salmonella typhimurium. It counts as cell-based. The conditions noted are these: interval [a]-[b], tested spheniscin-2 0.2-100 μM, MSI-94 0.2-10 μM. As for the experimental part:
as §2, §3, §4, §5, §6

A further assay concerns Micrococcus luteus. It counts as cell-based. The conditions noted are these: interval [a]-[b], tested spheniscin-2 0.2-100 μM, MSI-94 0.2-10 μM. As for the experimental part: as §2, §3, §4, §5, §6
In the next assay the test system is Nocardia asteroides. It counts as cell-based. Particulars: interval [a]-[b], tested spheniscin-2 0.2-100 μM, MSI-94 0.2-10 μM. As for the experimental part: as §2, §3, §4, §5, §6
The test system of a further assay is Aerococcus viridans. Format: cell-based. Particulars: interval [a]-[b], tested spheniscin-2 0.2-100 μM, MSI-94 0.2-10 μM. As to the method: as §2, §3, §4, §5, §6
The next assay concerns Staphylococcus aureus. Format: cell-based. Particulars: interval [a]-[b], tested spheniscin-2 0.2-100 μM, MSI-94 0.2-10 μM. As to the method:
as §2, §3, §4, §5, §6

The next assay deals with Listeria monocytogenes. It counts as cell-based. The conditions noted are these: interval [a]-[b], tested spheniscin-2 0.2-100 μM, MSI-94 0.2-10 μM. As for the experimental part: as §2, §3, §4, §5, §6
In another assay the test system is S. haemolyticus. It counts as cell-based. Particulars: interval [a]-[b], tested spheniscin-2 0.2-100 μM, MSI-94 0.2-10 μM. As for the experimental part:
as §2, §3, §4, §5, §6

For assay [1], the system named is Pseudomonas aeruginosa ATCC 82118. It counts as cell-based. Particulars: interval [a]-[b], tested spheniscin-2 0.2-100 μM, MSI-94 0.2-10 μM. As for the experimental part:
as §2, §3, §4, §5, §6

The next assay concerns B. cereus ATCC 11778. The assay can be described thus: Bactericidal or bacteriostatic effect, spreading on Petri dishes and counting colonies. The conditions noted are these: colonies counted after 24 h of incubation, Yes/No. Format: cell-based, Bacillus cereus. As for the experimental part: as §1
The next assay relates to Candida glabrata. It counts as cell-based. The conditions noted are these: tested spheniscin-2 0.2-100 μM, MSI-94 0.2-10 μM, ND = activity not detected in range tested. As for the experimental part:
(§7) The yeast strain C. albicans to be tested was incubated in a suitable culture medium of the “Sabouraud” type.
as §3, §4, §5
(§8) The minimal growth inhibitory concentration (MIC) corresponds to the interval [a]-[b] in which [a] is the strongest concentration tested for which the microorganism grows and [b] is the weakest concentration tested starting at which there is 100% inhibition of growth of the microorganism (Casteels and Tempst, 1994). […]

The subject of a further assay is C. tropicalis. It counts as cell-based. Particulars: interval [a]-[b], tested spheniscin-2 0.2-100 μM, MSI-94 0.2-10 μM. As for the experimental part:
as §7, §3, §4, §5, §8

A further assay deals with Aspergillus fumigatus. Format: cell-based. The conditions noted are these: interval [a]-[b], tested spheniscin-2 0.2-100 μM, thanatin 0.4-41.1 μM. As for the experimental part:
(§9) The spores of the fungus N. crassa to be tested were suspended in a suitable culture medium of the “potato infusion—glucose” type. Preference was given to the use of 12 g of potato dextrose broth medium (1/2 PDB, Difco) per 1 liter of demineralized water. Two antibiotics were added to the culture medium: cefotaxime (final concentration at 100 μg/ml) and tetracycline (final concentration at 10 μg/ml).
as §3
(§10) For the filamentous fungi, the incubation was performed at 37° C. in a humid atmosphere for 48 hours.
(§11) The antimicrobial activities expressed in minimal inhibitory concentration (MIC) of spheniscin 2 (concentrations comprised between 0.2 μM and 100 μM) were determined against bacteria, yeasts and fungi using a growth inhibition test in liquid medium in microtitration plates (for the detailed protocol see example 2.4 as well as Hétru and Bulet, 1997). […]

For a further assay, the system named is Neurospora crassa. It counts as cell-based. The conditions noted are these: interval [a]-[b], tested spheniscin-2 0.2-100 μM, thanatin 0.4-41.1 μM. As for the experimental part: as §9, §3, §10, §11
The subject of the next assay is Pseudomonas aeruginosa. Format: cell-based. As for the experimental part:
(§12) Strains of microorganisms capable of growing at such pH values were selected in advance: these were Pseudomonas aeruginosa and Escherichia coli 1106 (Gram-negative bacteria). The tests of antimicrobial activity were performed in liquid medium in microtitration plates (for the detailed protocol see example 2.4 as well as Hétru and Bulet, 1997). The pH of the liquid medium used was adjusted with hydrochloric acid for each test.
(§13) Two strains of Gram-negative bacteria (Pseudomonas aeruginosa and Escherichia coli 1106) capable of growing in the range of pH values to be tested were selected. The range of pH values tested corresponded to the pH variations observed in the well preserved stomach content of the incubating king penguin (Thouzeau et al., 2003).

Another assay relates to Escherichia coli 1106. It counts as cell-based. As to the method:
as §12, §13

Consider `CC[C@H](C)[C@@H]1NC(=O)[C@@H]2CCCN2C(=O)[C@H]([C@@H](C)CC)NC(=O)[C@H](CO)NC(=O)[C@@H]2CCCN2C(=O)[C@H](Cc2ccccc2)NC(=O)[C@H](CCCNC(=N)N)NC(=O)[C@@H]2CSSC[C@@H](C(=O)N[C@@H](CCCNC(=N)N)C(=O)N[C@@H](CCCNC(=N)N)C(=O)N[C@H](C(=O)N[C@@H](Cc3c[nH]c4ccccc34)C(=O)O)C(C)C)NC(=O)[C@@H]3CSSC[C@H](NC(=O)[C@H](CC(C)C)NC(=O)CNC(=O)[C@H](Cc4ccccc4)NC(=O)[C@@H](N)CO)C(=O)N[C@@H](CCCNC(=N)N)C(=O)N[C@@H](CC(C)C)C(=O)N[C@@H](CCCNC(=N)N)C(=O)N[C@@H](CCCNC(=N)N)C(=O)NCC(=O)N[C@@H](Cc4ccccc4)C(=O)N[C@@H](CSSC[C@H](NC(=O)[C@H](CCCNC(=N)N)NC(=O)CNC1=O)C(=O)N[C@@H](CO)C(=O)N[C@@H](CCCNC(=N)N)C(=O)N[C@@H](Cc1ccccc1)C(=O)N[C@@H](C(C)C)C(=O)N[C@@H](CCC(N)=O)C(=O)N3)C(=O)N[C@@H](C)C(=O)N[C@@H](CCCNC(=N)N)C(=O)NCC(=O)N[C@@H](CCCNC(=N)N)C(=O)N2` [spheniscin-2] (HELM PEPTIDE1{S.F.G.L.C.R.L.R.R.G.F.C.A.R.G.R.C.R.F.P.S.I.P.I.G.R.C.S.R.F.V.Q.C.C.R.R.V.W}$PEPTIDE1,PEPTIDE1,5:R3-33:R3|PEPTIDE1,PEPTIDE1,12:R3-27:R3|PEPTIDE1,PEPTIDE1,17:R3-34:R3$$$V2.0; N-terminus and C-terminus assumed), for which the “Bactericidal effect of spheniscin-2” value in the assay with E. coli 1106 and with B. cereus ATCC 11778 was “Yes” throughout. In addition, the minimum inhibitory concentration (MIC) with Bacillus subtilis fell in the range of 0.8 to 1.5 µM; against Escherichia coli SBS 363 it was 0.8 to 1.5 µM; with Klebsiella pneumoniae it was 50 to 100 µM; with B. megaterium it was 0.4 to 0.8 µM; against Salmonella typhimurium it was 6 to 12 µM; in the assay on Micrococcus luteus it was 1.5 to 3 µM. The MIC against Nocardia asteroides was in the range of 0.8 to 1.5 µM; in the assay on Aerococcus viridans it was 0.4 to 0.8 µM; in the assay on Staphylococcus aureus it was 1.5 to 3 µM; against Listeria monocytogenes, 6 to 12 µM; against S. haemolyticus, 1.5 to 3 µM; in [1] it was 6 to 12 µM. Also, the MIC is >100 µM in the assay with Candida glabrata, 1.5 to 3 µM in the assay with C. tropicalis, 3 to 6 µM in the assay with Aspergillus fumigatus and 3 to 6 µM against Neurospora crassa. The “MIC (μM) after 48 h of incubation” value against Pseudomonas aeruginosa (pH 4.2) was >100 µM; in the assay with Pseudomonas aeruginosa (pH 7.2), 6 to 12 µM; in the assay with Escherichia coli 1106 (pH 4.2), 6 to 12 µM; in the assay with Escherichia coli 1106 (pH 5.2), 25 to 50 µM.

Broadly, the MIC is the lowest concentration that inhibits growth of the organism. Read a high MIC as a need for much substance.
